Test results reported in US6759547B1, “5,6,7,8-tetrahydronaphthalen-2-yl 2,6-difluoroheptatrienoic acid derivatives having serum glucose reducing activity” (Allergan, Inc., priority 2003, dated 2004).

Tests used:
RARα = biological target: T1, RARα (Homo sapiens, UniProt P10276); experiment: chimeric receptor transactivation assay, RARα; format: cell-based
T1 sequence (P10276 183-417 limits assumed): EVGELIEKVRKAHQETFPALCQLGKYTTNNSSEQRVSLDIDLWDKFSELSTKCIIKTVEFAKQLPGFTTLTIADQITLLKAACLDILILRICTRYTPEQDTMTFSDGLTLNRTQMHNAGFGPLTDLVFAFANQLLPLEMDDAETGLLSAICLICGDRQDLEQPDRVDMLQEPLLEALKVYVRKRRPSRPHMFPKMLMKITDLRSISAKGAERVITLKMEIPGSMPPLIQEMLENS
Source text: (§1) One such assay is a chimeric receptor transactivation assay which tests for agonist-like activity in the RARα RARβ and RARγ receptor subtypes, and which is based on work published by Feigner P. L. and Holm M. (1989) Focus, 112 is described in detail in U.S. Pat. No. 5,455,265. The specification of U.S. Pat. No. 5,455,265 is hereby expressly incorporated by reference.
(§2) Table 1 discloses the activity of certain exemplary compounds of the invention in the above-described receptor transactivation and binding assays. Particularly, the transactivation data pertaining to activation of the RAR receptors were obtained in the chimeric assay, and the transactivation data pertaining to the activation of RXR receptors were obtained in the holoreceptor assay.

RARβ = biological target: T2, RARβ (Homo sapiens, UniProt P10826); experiment: chimeric receptor transactivation assay, RARβ; format: cell-based; conditions: for EC50: chimeric assay, read-out: RAR Trans. EC50 β; for RAR Trans. efficacy β: efficacy as a percentage compared to the standard compound
T2 sequence (P10826 183-417 limits assumed): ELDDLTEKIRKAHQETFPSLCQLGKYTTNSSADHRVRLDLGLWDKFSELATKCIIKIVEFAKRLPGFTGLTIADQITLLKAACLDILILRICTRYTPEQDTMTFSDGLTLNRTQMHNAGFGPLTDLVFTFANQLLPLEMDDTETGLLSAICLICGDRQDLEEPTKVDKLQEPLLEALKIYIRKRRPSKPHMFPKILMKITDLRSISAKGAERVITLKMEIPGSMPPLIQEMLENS
Source text: as §1, §2

RARγ = biological target: T3, RARγ (Homo sapiens, UniProt P13631); experiment: chimeric receptor transactivation assay, RARγ; format: cell-based
T3 sequence (P13631 185-419 limits assumed): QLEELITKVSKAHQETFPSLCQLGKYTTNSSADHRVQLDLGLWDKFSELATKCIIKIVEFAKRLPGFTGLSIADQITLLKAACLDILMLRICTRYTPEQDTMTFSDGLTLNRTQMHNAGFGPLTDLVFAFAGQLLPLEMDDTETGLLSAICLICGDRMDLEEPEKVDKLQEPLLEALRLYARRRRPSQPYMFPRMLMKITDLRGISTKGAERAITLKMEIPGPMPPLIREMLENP
Source text: as §1, §2

RXRγ = biological target: T4, RXRγ (Homo sapiens, UniProt P48443); experiment: holoreceptor transactivation assay, RXRγ; format: cell-based; conditions: for RXR Trans. efficacy γ: efficacy as a percentage compared to the standard compound; for EC50: holoreceptor assay, read-out: RXR Trans. EC50 γ
T4 construct: expressed in transfected cells
T4 sequence (P48443 1-463): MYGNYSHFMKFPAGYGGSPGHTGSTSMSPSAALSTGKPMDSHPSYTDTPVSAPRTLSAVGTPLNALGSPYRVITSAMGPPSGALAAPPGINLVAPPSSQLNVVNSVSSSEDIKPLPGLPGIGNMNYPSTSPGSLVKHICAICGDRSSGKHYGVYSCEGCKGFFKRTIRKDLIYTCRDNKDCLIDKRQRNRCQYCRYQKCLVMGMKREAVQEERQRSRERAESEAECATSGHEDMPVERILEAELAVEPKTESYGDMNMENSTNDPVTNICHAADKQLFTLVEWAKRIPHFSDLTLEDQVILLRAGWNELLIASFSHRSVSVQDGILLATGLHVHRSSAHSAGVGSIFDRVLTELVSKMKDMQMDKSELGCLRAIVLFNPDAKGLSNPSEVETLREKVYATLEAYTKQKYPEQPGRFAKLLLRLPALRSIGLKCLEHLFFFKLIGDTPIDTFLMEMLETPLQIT
Source text: Particularly, the transactivation data pertaining to activation of the RAR receptors were obtained in the chimeric assay, and the transactivation data pertaining to the activation of RXR receptors were obtained in the holoreceptor assay.

[1] = test system: female diabetic db/db mice; experiment: serum glucose, triglyceride and thyroxine levels in db/db mice; format: in vivo; conditions: female db/db mice, Compound 27 50 mg/kg
Experimental: An assay described below tests the effect of compounds of the invention on serum glucose, tryglyceride and thyroxine levels in female 9-10 weeks old db/db mice.
Blood samples (70 μl) were taken by orbital bleeding at 11:00 AM on day 0 (pre-treatment), day 3, and day 6. On day 7, a blood sample (700 μl) was taken at 11:00 AM and the animals were sacrificed. Glucose, triglyceride and thyroxine (T4) levels were determined on a Boehringer Manheim Hatachi Clinical Chemistry Analyzer using standard protocols provided by the manufacturer and reagents that were supplied in commercially available kits (glucose and T4; Boehringer Manheim; triglycerides: Roche Diagnostics). Seven animals were treated in each group.

[2] = efficacy as a percentage compared to the standard compound
[3] = day 0 (pre-treatment), groups: standard compound 5 mg/kg
[4] = oral gavage daily, standard compound 5 mg/kg

Row | SMILES | EC50 (RARα; chimeric assay, read-out: RAR Trans. EC50 α) | RAR Trans. efficacy α (RARα; [2]) | EC50 (RARβ) | RAR Trans. efficacy β (RARβ) | EC50 (RARγ; chimeric assay, read-out: RAR Trans. EC50 γ) | RAR Trans. efficacy γ (RARγ; [2]) | RXR Trans. efficacy γ (RXRγ) | EC50 (RXRγ) | Glucose Day 0 [1, 3] | Triglycerides Day 0 [1, 3] | T4 Day 7 ([1]; oral gavage daily for seven days, standard compound 5 mg/kg) | Glucose Day 3, 3 h [1, 4] | Glucose Day 6, 3 h [1, 4] | Triglycerides Day 3, 3 h [1, 4]
1 | CCCOc1cc2c(cc1\C(C)=C(F)/C=C/C(C)=C(\F)C(=O)O)C(C)(C)CCC2(C)C [Compound 11, (2Z,4E,6E)-2,6-Difluoro-3-methyl-7-(5,5,8,8-tetramethyl-3-propoxy-5,6,7,8-tetrahydro-naphthalen-2-yl)-octa-2,4,6-trienoic acid] | 5 nM | 12% | > 1000 nM | 25% | 180 nM | 28% |  |  |  |  |  |  |  | 
2 | CC/C(=C(F)/C=C/C(C)=C(\F)C(=O)O)c1cc2c(cc1OCOC)C(C)(C)CCC2(C)C [Compound 21, (2Z,4E,6E)-2,6-Difluoro-7-(3-methoxymethoxy-5,5,8,8-tetramethyl-5,6,7,8-tetrahydro-naphthalen-2-yl)-3-methyl-nona-2,4,6-trienoic acid] |  |  | 170 nM | 24% |  |  | 36% | 8 nM |  |  |  |  |  | 
3 | CCOc1cc2c(cc1\C(CC)=C(F)/C=C/C(C)=C(\F)C(=O)O)C(C)(C)CCC2(C)C [Compound 27, (2Z,4E,6E)-7-(3-Ethoxy-5,5,8,8-tetramethyl-5,6,7,8-tetrahydro-naphthalen-2-yl)-2,6-difluoro-3-methyl-nona-2,4,6-trienoic acid] |  |  | 95 nM | 14% |  |  | 23% | 3 nM | 384 mg/dL | 152 mg/dL | 3.9 ± 0.9 µg/dL | 290 mg/dL | 225 mg/dL | 106 mg/dL
